# Patent US20200024662A1, “METHODS FOR TREATING OPIOID ADDICTION” (ASSUREX HEALTH, INC., priority 2016, published 2020)
# System: patients treated with Methadone in the START trial
# Assay: PK/PD Model 2 binning vs Methadone completion
# Assay type: in vivo, human
# Protocol: For the model analyses, models were developed that sort patients into one of three categories, Green (‘G’) Yellow (‘Y’) or Red (‘R’). Patients determined to be high risk for non-completion by the model are placed into the Red Bin. Patients at intermediate risk of non-completion are placed in the Yellow Bin, and for this study, Yellow Bin patients are treated the same as patients found to be at Low Risk of non-completion, or those who are placed in the Green Bin. Thus, the Green and Yellow bins are combined for analysis.
# Three separate PK/PD Models were generated by combining the PK model with each of the three PD models separately as follows. For each PKPD model, the corresponding PD risk score was added to the raw PK score (bin). A total PD risk score that was negative, represents a reduction of the baseline PK score, while a total PD risk score that was positive represented an increase in the baseline PK score.
# Samples from patients treated with Methadone in the START trial described in Example 1 above were used (N=352). […] Each model was tested as described below against Sample 1, Sample 2 and/or the Full Sample.
# Pearson's product moment, Chi-square with Yates correction were calculated. Diagnostic tests, odds ratios, Pearson's product moment, Chi-square with Yates correction were calculated using MEDCALC and R version 3.3.1.
# [1] = PK/PD Model 2, Full Sample, Green bin, Risk Score −2.2 to 1
# [2] = PK/PD Model 2, Full Sample, Red bin, Risk Score 2.7 to 4.7
# [3] = PK/PD Model 2, Full Sample, Yellow bin, Risk Score 1.1 to 2.5
# [4] = PK/PD Model 2, Sample 1, Green bin, Risk Score −2.3 to 2
# [5] = PK/PD Model 2, Sample 1, Red bin, Risk Score 3.3 to 6.7
# [6] = PK/PD Model 2, Sample 1, Yellow bin, Risk Score 2.2 to 3.2
# [7] = PK/PD Model 2, Sample 2, Green bin, Risk Score −2.2 to 1
# [8] = PK/PD Model 2, Sample 2, Red bin, Risk Score 2.7 to 4.7
# [9] = PK/PD Model 2, Sample 2, Yellow bin, Risk Score 1.1 to 2.5
structure (smiles),measurement,setting,value
"CCC(=O)C(CC(C)N(C)C)(c1ccccc1)c1ccccc1 (stereo not drawn) [Methadone, methadone]",Completers,[1],167
same,Non Completers,[1],8
same,Completers,[2],60
same,Non Completers,[2],20
same,Completers,[3],80
same,Non Completers,[3],17
same,Completers,[4],88
same,Non Completers,[4],3
same,Completers,[5],27
same,Non Completers,[5],8
same,Completers,[6],41
same,Non Completers,[6],9
same,Completers,[7],92
same,Non Completers,[7],2
same,Completers,[8],19
same,Non Completers,[8],9
same,Completers,[9],48
same,Non Completers,[9],6
